One block for each molecule: values may come before it.
Key:
Assay type in all cases: cell-based, human
[1] = system: hiNSCs; assay: Differentiation of dissociated hiNSCs with retinoic acid added to basal media (immunostaining); details: retinoic acid 10-100 μM
Description: (§1) To encourage spontaneous differentiation, hiNSC colonies were enzymatically removed from MEF feeder layers using TrypLE (Invitrogen), then dissociated as much as possible by manually pipetting. This cell suspension was sometimes further separated into a single cell suspension using a […] cell strainer to remove larger clumps. Dissociated hiNSCs were plated and cultured on multiple substrates including CELLstart (Invitrogen), laminin (Roche) or gelatin in hiNSC basal media without bFGF or in neurobasal media supplemented with 2% B27 (Invitrogen), 1% Glutamax, and 1% antibiotic-antimycotic. hiNSC cells began to show differentiation into BIII-tubulin (TUJ1)-positive immature neurons with visible neurite extensions in as little as 4 days. After two weeks in basal media, hiNSC cells spontaneously differentiated into more mature neuronal and glial subtypes. Adding various amounts of retinoic acid (10-100 μM) caused cells to differentiate into more mature neuronal phenotypes in a shorter amount of time (˜8 days). […] For guided differentiation, Shh (500 ng/ml, Peprotech), FGF8 (500 ng/ml, Peprotech), and RA (R&D) at concentrations between 10-100 μM were used to facilitate neuronal and glial differentiation within shorter culture periods (˜7-8 days). For differentiation studies in undefined media, DMEM supplemented with 10% FBS and 1% antibiotic-antimycotic was used. […]

[2] = system: GABA receptors; assay: Electrophysiology of 1-week hiNSC cultures, functionality of GABA receptors; details: hiNSCs cultured for one week
Description: hiNSCs were grown on poly-L-lysine coated coverslips (Corning) in neurobasal media supplemented with 2% B27 (Invitrogen), 1% Glutamax, and 1% antibiotic-antimycotic for 1-8 weeks. Recordings were performed at 34° C. For whole-cell patch clamp experiments, pipettes contained saline (in mM): 130 K-gluconate, 10 KCl, 0.1 CaCl2, 2 Mg-ATP, 1.1 EGTA, and 10 HEPES, pH 7.4 KOH. Bath saline contained the following (in mM): 140 NaCl, 2.5 KCl, 2.5 CaCl2, 1.2 MgCl2, 10 HEPES, and 11 glucose, pH 7.4 NaOH.
To determine the functionality of GABA receptors, 1-week hiNSC cultures were assessed via known electrophsysiology methods (e.g., voltage ramp) in order to determine the response of neurons resulting from provided hiNSCs both in the presence of muscimol and in its absence.

[3] = system: inhibitory GABA receptors; assay: Live Fluo-4AM calcium imaging of hiNSC cultures; details: two-week cultures; 200 μM picrotoxin just before imaging
Description: Cells plated onto coverslips or on 3D scaffolds were immersed in extracellular solution (NaCl 140 mM, KCl 2.8 mM, CaCl2 2 mM, MgCl2 2 mM, HEPES 10 mM, glucose 10 mM, pH=7.4, adjusted with NaOH). Fluo-4 (Invitrogen) calcium sensitive dye was mixed 1:1 with 20% Pluronic F127 (Invitrogen). Next, Fluo-4 was diluted to a final concentration of 1 μM in the extracellular buffer and pre-warmed to 37° C. The Fluo-4 1 μM solution was applied to cells and incubated at 37° C. for 1 hour. Upon incubation, cells were washed with the extracellular buffer to remove any unreacted dye. Cells were imaged using Olympus MVX10 macroscope (12.6× magnification) and Hamamatsu ORCA-Flash4.0 camera. The images were taken with the following setup: 15 ms exposure, 60 ms frame frequency, 512×512 pixel, 4×4 binning, […] over 3 minutes at room temperature. Some samples were treated with 200 μM picrotoxin (Sigma-Aldrich) just before imaging. The movie was created using ImageJ software (NIH).

[4] = system: hiNSCs; assay: Guided differentiation of hiNSCs into neuronal subtypes with growth factors in Neurobasal media (HB9 / TH immunostaining); details: added to Neurobasal media; one week in culture; FGF8 500 ng/ml, Shh 500 ng/ml
Description: as §1

Molecule: CC1=C(/C=C/C(C)=C/C=C/C(C)=C/C(=O)O)C(C)(C)CCC1 [retinoic acid]
time to differentiate into more mature neuronal phenotypes [1]: ~8 days

Molecule: NCc1cc(=O)[nH]o1 [muscimol]
membrane potential response of hiNSCs to GABA agonist [2]: depolarizing response

Molecule: picrotoxin
spontaneous calcium signaling in response to GABA receptor blocker [3]: significantly activated

staining of tyrosine hydroxylase (TH, marker of dopaminergic neurons) [4]: increase
B1: FGF8: fibroblast growth factor 8 (Peprotech) added to culture media (protein, UniProt P55075 23-233, looked up)
Fibroblast growth factor 8: QEGPGRGPALGRELASLFRAGREPQGVSQQHVREQSLVTDQLSRRLIRTYQLYSRTSGKHVQVLANKRINAMAEDGDPFAKLIVETDTFGSRVRVRGAETGLYICMNKKGKLIAKSNGKGKDCVFTEIVLENNYTALQNAKYEGWYMAFTRKGRPRKGSKTRQHQREVHFMKRLPRGHHTTEQSLRFEFLNYPPFTRSLRGSQRTWAPEPR

Reference: patent US10662409B2, “Methods of generating neural stem cells” (Trustees of Tufts College, priority 2015, dated 2020)
